The values that follow come from patent publication US9193731B2, “Antimicrobial compounds and methods of making and using the same” (Melinta Therapeutics, Inc., priority 2009, dated 2015).

This test deals with Escherichia coli strain ATCC25922. The test can be described thus: standard microdilution assay to determine minimum inhibitory concentrations (MICs). It counts as cell-based. The note with it: for E. coli ATCC25922 MIC: Escherichia coli strain ATCC25922, microdilution; for MIC: Escherichia coli, ATCC25922, Escherichia coli strain ATCC25922, microdilution, read-out: E. coli ATCC25922 MIC. The procedure, abridged: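 Broth microdilution MIC against E. coli ATCC25922, following CLSI protocols, typically in a 100 microliter final volume. Results reported as +/− relative to a 16 micrograms/ml cutoff.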
For orientation: Dilution methods test growth across graded concentrations, often in twofold steps.

What is called MIC is the lowest concentration that inhibits growth of the organism.

Turning to `N=C(N)N[C@@H]1CCCN(Cc2ccc(-n3cc4cc(-c5ccc(S(=O)(=O)NC6CCNCC6)cc5)[nH]c4nc3=O)cc2)C1` [Compound 1119], the “E. coli ATCC25922 MIC” value is on record as “+ (a “+” indicates that the compound has an MIC value of 16 micrograms/ml or less)”. Take `N=C(N)NCCCNCc1ccc(-n2cc3cc(-c4cc(CCCCN)cc(C(N)=O)c4)[nH]c3nc2=O)cc1` [Compound 2069a]: the “E. coli ATCC25922 MIC” value is listed as “+ (a “+” indicates that the compound has an MIC value of 16 micrograms/ml or less)”. As to `N=C(N)NCCCCCc1ccc(-c2cn3cc(-c4ccc(Br)cc4)[nH]c3nc2=O)cc1` [Compound 885], the MIC is > 16 µg/mL.

For `CC(=O)NCCN(C1CCNCC1)S(=O)(=O)c1cccc(-c2cc3cn(-c4ccc(CNCCCN=C(N)N)cc4)c(=O)nc3[nH]2)c1` [Compound 1243], the “E. coli ATCC25922 MIC” value is listed as “+ (a “+” indicates that the compound has an MIC value of 16 micrograms/ml or less)”. In the case of `N=C(N)NCCCNCc1ccc(-n2cc3cc(-c4ccc(S(=O)(=O)N(CCCc5cnc6ncnn6c5)C5CCNCC5)cc4)[nH]c3nc2=O)cc1` [Compound 862], the “E. coli ATCC25922 MIC” value is given as “+ (a “+” indicates that the compound has an MIC value of 16 micrograms/ml or less)”. Take `O=c1nc2[nH]c3ccccc3c2cn1C1CNC1` [Compound 591]: the minimum inhibitory concentration (MIC) is > 16 µg/mL. Still for that read-out and setting: as for `NC1CCN(Cc2ccc(-n3cc4cc(-c5ccc(S(=O)(=O)NC6CCNCC6)cc5F)[nH]c4nc3=O)cc2)CC1` [Compound 263], the figure is < 16 µg/mL. Regarding `N=C(N)NCCCNCc1ccc(-n2cc3cc(C4CCN(CCCN)C4)[nH]c3nc2=O)cc1` (stereo not shown) [Compound 1448], the “E. coli ATCC25922 MIC” value is “+ (a “+” indicates that the compound has an MIC value of 16 micrograms/ml or less)”. In the case of `NCc1ccc(-n2cc3cc(-c4cccc(CN5CCNCC5)c4)[nH]c3nc2=O)cc1` [Compound 1232], the MIC was > 16 µg/mL. On to `NCCCNCc1ccc(-n2cc3cc(-c4cc(C(=O)N5CCN(CCO)CC5)cc(N5CCNCC5)c4)[nH]c3nc2=O)cc1` [Compound 860], for which the “E. coli ATCC25922 MIC” value was “− (a “−” indicates that the compound has an MIC value greater than 16 micrograms/ml)”. With `N=C(N)N[C@@H]1CCN(Cc2ccc(-n3cc4cc[nH]c4nc3=O)cc2)C1` [Compound 1140], the minimal inhibitory concentration (MIC) is > 16 µg/mL. `NCCCNCc1ccc(-n2cc3cc(-c4cc(CN5CCS(=O)(=O)CC5)cc(N5CCNCC5)c4)[nH]c3nc2=O)cc1` [Compound 914]: the “E. coli ATCC25922 MIC” value is on record as “− (a “−” indicates that the compound has an MIC value greater than 16 micrograms/ml)”. Take `NCCCN(CCCN)Cc1ccc(-n2cc3cc(-c4ccc(S(=O)(=O)N5CCN6CCC5CC6)c(F)c4)[nH]c3nc2=O)cc1` [Compound 231]: the minimal inhibitory concentration (MIC) is < 16 µg/mL.

With `N=C(N)NCCCN1CC=C(n2cc3cc(-c4ccc(S(=O)(=O)N(Cc5ccc(Cl)c(Cl)c5)C5CCNCC5)cc4)[nH]c3nc2=O)CC1` [Compound 966], the “E. coli ATCC25922 MIC” value is “+ (a “+” indicates that the compound has an MIC value of 16 micrograms/ml or less)”. Turning to `N=C(N)NCCCN1CC=C(c2cn3cc(-c4ccc(F)cc4)[nH]c3nc2=O)CC1` [Compound 566], the minimum inhibitory concentration (MIC) was > 16 µg/mL.

For the compound `N=C(N)NCCCNC(=O)c1ccc(-n2cc3cc(C4CCCNC4)[nH]c3nc2=O)cc1` (stereo not shown) [Compound 1257], the MIC was > 16 µg/mL.

For `N=C(N)NCCCNCc1ccc(-n2cc3cc(-c4ccc(S(=O)(=O)NC5CCN(CCF)CC5)cc4)[nH]c3nc2=O)cc1` [Compound 943], the “E. coli ATCC25922 MIC” value was “+ (a “+” indicates that the compound has an MIC value of 16 micrograms/ml or less)”. Same read-out and setting: as for `COCCOCCN(C1CCNCC1)S(=O)(=O)c1ccc(-c2cc3cn(-c4ccc(CNCCCNC(=N)N)cc4)c(=O)nc3[nH]2)cc1` [Compound 802], the entry is “+ (a “+” indicates that the compound has an MIC value of 16 micrograms/ml or less)”. For the compound `CN1CCN(c2cccc(-c3cc4cn(-c5ccc(CNCCCNC(=N)N)cc5)c(=O)nc4[nH]3)c2)CC1` [Compound 678], the minimal inhibitory concentration (MIC) was < 16 µg/mL. On the same count and under the same terms, the figure for `N=C(N)NCCCCCn1cc2cc(-c3ccc(S(=O)(=O)NC4CCNCC4)cc3)oc2nc1=O` [Compound 912] is > 16 µg/mL; for `NCCCNCc1ccc(-n2cc3cc(CCN)[nH]c3nc2=O)cc1` [Compound 624] it is < 16 µg/mL. On the same count and under the same terms, as for `NCCCNCc1ccc(-c2cn3nc(-c4ccc(F)cc4)[nH]c3nc2=O)cc1` [Compound 662], the figure is > 16 µg/mL. Regarding `N=C(N)NCCCNCc1ccc(-n2cc3cc(-c4ccc(F)c(CCCCN)c4)[nH]c3nc2=O)cc1` [Compound 2071a], the “E. coli ATCC25922 MIC” value was “+ (a “+” indicates that the compound has an MIC value of 16 micrograms/ml or less)”. On to `N=C(N)NCCCNCc1ccc(-c2cn3cc(-c4ccc(C(=O)N5C6CCC5CC(=O)C6)cc4)[nH]c3nc2=O)cc1` [Compound 703], for which the MIC is > 16 µg/mL.

Regarding `CNCc1ccc(-n2cc3cc(-c4ccc(S(=O)(=O)N(CCCN5CCCCC5)C5CCNCC5)cc4)[nH]c3nc2=O)cc1` [Compound 959], the “E. coli ATCC25922 MIC” value is recorded as “− (a “−” indicates that the compound has an MIC value greater than 16 micrograms/ml)”. The same measure, in the same setting: the entry for `N=C(N)NCCCNCc1ccc(-n2cc3cc(-c4ccc(OC(F)(F)F)c(CCCCN)c4)[nH]c3nc2=O)cc1` [Compound 2072a] is “+ (a “+” indicates that the compound has an MIC value of 16 micrograms/ml or less)”. As for `N=C(N)NCCCNCc1ccc(-c2cn3cc(-c4ccc(S(=O)(=O)N5CCNCC5)cc4)[nH]c3nc2=O)cc1` [Compound 788], the minimal inhibitory concentration (MIC) is < 16 µg/mL. With `N=C(N)NCCCNCc1ccc(-n2cc3cc(-c4cc(CCCCN)cc([S+]([O-])C(F)(F)F)c4)[nH]c3nc2=O)cc1` (stereo not shown) [Compound 2054a], the “E. coli ATCC25922 MIC” value is given as “+ (a “+” indicates that the compound has an MIC value of 16 micrograms/ml or less)”. Turning to `CN(Cc1ccccc1)Cc1cc2cn(-c3ccc(CNCCCN)cc3)c(=O)nc2[nH]1` [Compound 905], the MIC was > 16 µg/mL.

For `NCCCNCc1ccc(-c2cn3cc(-c4ccc(C(=O)N5CC[C@@H](F)C5)cc4)[nH]c3nc2=O)cc1` [Compound 668], the MIC was > 16 µg/mL. Still for that read-out and setting: as for `Cn1cc2cc(-c3ccc(C(=O)NC4CCNCC4)cc3)[nH]c2nc1=O` [Compound 581], the figure is > 16 µg/mL; as for `NCCCNCc1ccc(-n2cc3cc(-c4ccc(OC(F)(F)F)cc4)[nH]c3nc2=O)cc1` [Compound 296], > 16 µg/mL. On to `N=C(N)NCCCNCc1ccc(-n2cc3cc(-c4ccc(S(=O)(=O)N(CCOc5ccc(F)cc5)C5CCOCC5)cc4)[nH]c3nc2=O)cc1` [Compound 880], for which the “E. coli ATCC25922 MIC” value is “− (a “−” indicates that the compound has an MIC value greater than 16 micrograms/ml)”. With `N=C(N)NCCCNCc1ccc(-c2cn3cc(CCc4cccc(OC(F)(F)F)c4)[nH]c3nc2=O)cc1` [Compound 975], the “E. coli ATCC25922 MIC” value was “− (a “−” indicates that the compound has an MIC value greater than 16 micrograms/ml)”.

As to `CCOCc1cc2cn(-c3ccc(CNCCCN)cc3)c(=O)nc2[nH]1` [Compound 764], the MIC is > 16 µg/mL. Same read-out and setting: as for `NCCCOc1cccc(-c2cc3cn(-c4ccc(CN)cc4)c(=O)nc3[nH]2)c1` [Compound 1087], the figure is > 16 µg/mL. The same measure, in the same setting: as for `N=C(N)NCCCNCc1ccc(-n2cc3cc(CCN(C(=O)c4ccccc4)C4CCNCC4)[nH]c3nc2=O)cc1` [Compound 688], the figure is < 16 µg/mL.

Take `N=C(N)NCCCNCc1ccc(-n2cc3cc(-c4ccc(S(=O)(=O)N(Cc5csc(-c6ccc(C(F)(F)F)cc6)n5)C5CCNCC5)cc4)[nH]c3nc2=O)cc1` [Compound 786]: the “E. coli ATCC25922 MIC” value is “+ (a “+” indicates that the compound has an MIC value of 16 micrograms/ml or less)”. Still for that read-out and setting: the entry for `N=C(N)NCCCNCc1ccc(-n2cc3cc(-c4cc(C(=O)NCCc5cccc(F)c5)cc(N5CCNCC5)c4)[nH]c3nc2=O)cc1` [Compound 1068] is “+ (a “+” indicates that the compound has an MIC value of 16 micrograms/ml or less)”.

For `CC(C)ONC(=O)c1ccc(-c2cn3cc(-c4ccc(CNCCCNC(=N)N)cc4)c(=O)nc3[nH]2)cc1` [Compound 737], the minimum inhibitory concentration (MIC) is > 16 µg/mL. As for `N=C(N)NCCCNCc1ccc(-c2cn3cc(-c4ccc(C(=O)N5CCN(CCN6CCOCC6)CC5)cc4)[nH]c3nc2=O)cc1` [Compound 684], the MIC was > 16 µg/mL.

In the case of `NCc1ccc(-n2cc3cc(-c4ccc(S(=O)(=O)N(CCCc5ccc(O)cc5)C5CCNCC5)cc4)[nH]c3nc2=O)cc1` [Compound 1081], the MIC is > 16 µg/mL. On to `N=C(N)NCCCNCc1ccc(-n2cc3cc(-c4ccc(S(=O)(=O)N(Cc5cc(Cl)cc(C(F)(F)F)c5)C5CCNCC5)cc4)[nH]c3nc2=O)cc1` [Compound 922], for which the “E. coli ATCC25922 MIC” value is recorded as “+ (a “+” indicates that the compound has an MIC value of 16 micrograms/ml or less)”.

As to `N=C(N)NCCCN1CC=C(n2cc3cc(-c4ccc(S(=O)(=O)N(CCCN5CCCCC5)C5CCNCC5)cc4)[nH]c3nc2=O)CC1` [Compound 960], the “E. coli ATCC25922 MIC” value is “+ (a “+” indicates that the compound has an MIC value of 16 micrograms/ml or less)”. Still for that read-out and setting: as for `N=C(N)NCCCNCc1ccc(-n2cc3cc(-c4ccc(S(=O)(=O)N(Cc5ccccc5SC(F)(F)F)C5CCNCC5)cc4)[nH]c3nc2=O)cc1` [Compound 756], the entry is “+ (a “+” indicates that the compound has an MIC value of 16 micrograms/ml or less)”. For the compound `N=C(N)NCCCN1CC=C(n2cc3cc(-c4ccc(S(=O)(=O)N(CC5COc6ccccc6O5)C5CCNCC5)cc4)[nH]c3nc2=O)CC1` (stereo not shown) [Compound 984], the “E. coli ATCC25922 MIC” value was “+ (a “+” indicates that the compound has an MIC value of 16 micrograms/ml or less)”.

Consider `N=C(N)NCCCNCc1ccc(-n2cc3cc(C4CCCN(Cc5ncc[nH]5)C4)[nH]c3nc2=O)cc1` (stereo not shown) [Compound 2022a], for which the minimum inhibitory concentration (MIC) is > 16 µg/mL. Still for that read-out and setting: as for `CN(CCCNCc1ccc(-n2cc3cc(-c4ccc(C(=O)NC5CCNCC5)cc4)[nH]c3nc2=O)cc1)C(=N)N` [Compound 241], the figure is < 16 µg/mL. With `CNCc1ccc(-n2cc3cc(-c4ccc(S(=O)(=O)N(CCCc5ccc(F)cc5)C5CCNCC5)cc4)[nH]c3nc2=O)cc1` [Compound 1062], the “E. coli ATCC25922 MIC” value is “− (a “−” indicates that the compound has an MIC value greater than 16 micrograms/ml)”.
